For nine compounds, EC50 results are on record in patent US20250312352A1, “GLP-1R MODULATING COMPOUNDS” (Gilead Sciences, Inc., priority 2021, published 2025).

Structures are written as SMILES.

The target in this experiment is T1, GLP-1R (Homo sapiens, UniProt P43220).
T1 construct: host or cells: CHO cells
T1 sequence (P43220 24-463): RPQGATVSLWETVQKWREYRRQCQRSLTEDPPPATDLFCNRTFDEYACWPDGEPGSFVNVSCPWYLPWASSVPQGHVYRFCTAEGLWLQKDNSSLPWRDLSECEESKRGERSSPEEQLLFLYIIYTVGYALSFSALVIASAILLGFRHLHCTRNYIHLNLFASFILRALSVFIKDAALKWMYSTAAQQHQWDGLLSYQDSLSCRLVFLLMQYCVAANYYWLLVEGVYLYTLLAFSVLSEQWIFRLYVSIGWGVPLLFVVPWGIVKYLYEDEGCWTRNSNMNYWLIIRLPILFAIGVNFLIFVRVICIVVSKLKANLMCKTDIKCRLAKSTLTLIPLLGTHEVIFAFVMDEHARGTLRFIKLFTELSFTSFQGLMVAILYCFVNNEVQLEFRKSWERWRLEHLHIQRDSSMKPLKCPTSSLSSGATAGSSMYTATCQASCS
Nature of the experiment: GLP-1R activation cAMP assay (Assay 1 or Assay 2). The experiment is classed as cell-based. Particulars: cAMP increase in CHO cells stably expressing GLP-1R; compounds run on one of the two cAMP assays. A digest of the protocol: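 EC50 values come from a sigmoidal fit of HTRF-detected cAMP rise versus log agonist concentration. GLP-1R-expressing CHO cells, equilibrated 1 h at 37 °C in HBSS with HEPES and BSA, received a 10-point compound dose series for 30 min before detection.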
In general terms: Changes in cAMP serve as a functional read-out for many G protein-coupled receptors.
A word on the EC50: it is the concentration giving half of the maximal effect. High values mean lower potency in that assay, low ones higher potency in that assay. In the case of `O=C(O)c1cc(F)c2nc(Cc3cc(F)c(-c4cccc(OCc5ncc(C(F)(F)F)s5)n4)cc3F)n(CC3(CF)CC3)c2c1` [Example 412, 2-(2,5-difluoro-4-(6-((5-(trifluoromethyl)thiazol-2-yl)methoxy)pyridin-2-yl)benzyl)-4-fluoro-1-((1-(fluoromethyl)cyclopropyl)methyl)-1H-benzo[d]imidazole-6-carboxylic acid], the EC50 came out at 0.099 nM. The compound `CC1(C#Cc2ccc(COc3cccc(-c4cc(F)c(Cc5nc6ccc(C(=O)O)cc6n5C[C@@H]5CCO5)cc4F)n3)c(F)c2)COC1` [Example 133, (S)-2-(2,5-difluoro-4-(6-((2-fluoro-4-((3-methyloxetan-3-yl)ethynyl)benzyl)oxy)pyridin-2-yl)benzyl)-1-(oxetan-2-ylmethyl)-1H-benzo[d]imidazole-6-carboxylic acid] returned an EC50 of 0.3 nM. In the case of `C[C@H]1COC[C@H]1n1c(Cc2cc(F)c(-c3ccc(F)c(OCc4ncc(C(F)(F)F)s4)n3)cc2F)nc2ccc(C(=O)O)cc21` [Example 409, 2-(2,5-difluoro-4-(5-fluoro-6-((5-(trifluoromethyl)thiazol-2-yl)methoxy)pyridin-2-yl)benzyl)-1-((3S,4R)-4-methyltetrahydrofuran-3-yl)-1H-benzo[d]imidazole-6-carboxylic acid] it was 0.695 nM. `CC(F)(F)c1cnc(COc2cccc(-c3cc(F)c(Cc4nc5ccc(C(=O)O)cc5n4[C@@H]4COCC4(C)C)cc3F)n2)s1` [Example 425, (S)-2-(4-(6-((5-(1,1-difluoroethyl)thiazol-2-yl)methoxy)pyridin-2-yl)-2,5-difluorobenzyl)-1-(4,4-dimethyltetrahydrofuran-3-yl)-1H-benzo[d]imidazole-6-carboxylic acid] yielded an EC50 of 0.535 nM. As for `CC1(C)COC[C@H]1n1c(Cc2cc(F)c(-c3ccc(F)c(OCc4ncc(C(F)(F)F)s4)n3)cc2F)nc2c(F)cc(C(=O)O)cc21` [Example 252, 2-[[2,5-difluoro-4-[5-fluoro-6-[[5-(trifluoromethyl)thiazol-2-yl]methoxy]-2-pyridyl]phenyl]methyl]-3-[(3S)-4,4-dimethyltetrahydrofuran-3-yl]-7-fluoro-benzimidazole-5-carboxylic acid], the EC50 was determined as 0.075 nM.

`CCOc1nnc(COc2cccc(-c3cc(F)c(Cc4nc5ccc(C(=O)O)cc5n4[C@@H]4COCC4(C)C)cc3C)c2)s1` [Example 259, (S)-1-(4,4-dimethyltetrahydrofuran-3-yl)-2-((3′-((5-ethoxy-1,3,4-thiadiazol-2-yl)methoxy)-5-fluoro-2-methyl-[1,1′-biphenyl]-4-yl)methyl)-1H-benzo[d]imidazole-6-carboxylic acid] yielded an EC50 of 0.577 nM. In the case of `Cc1ncc(C#Cc2ccc(COc3cccc(-c4cc(F)c(Cc5nc6ccc(C(=O)O)cc6n5C[C@@H]5CCO5)cc4F)n3)c(F)c2)cn1` [Example 146, (S)-2-(2,5-difluoro-4-(6-((2-fluoro-4-((2-methylpyrimidin-5-yl)ethynyl)benzyl)oxy)pyridin-2-yl)benzyl)-1-(oxetan-2-ylmethyl)-1H-benzo[d]imidazole-6-carboxylic acid] it was 0.09 nM. In the case of `O=C(O)c1cc(F)c2nc(Cc3cc(F)c(-c4cccc(OCc5ncc(C#CC6(CF)CC6)cc5Cl)n4)cc3F)n(C[C@@H]3CCO3)c2c1` [Example 380, (S)-2-(4-(6-((3-chloro-5-((1-(fluoromethyl)cyclopropyl)ethynyl)pyridin-2-yl)methoxy)pyridin-2-yl)-2,5-difluorobenzyl)-4-fluoro-1-(oxetan-2-ylmethyl)-1H-benzo[d]imidazole-6-carboxylic acid] it was 0.078 nM. `N#Cc1ccc(C#Cc2cnc(COc3cccc(-c4cc(F)c(Cc5nc6ccc(C(=O)O)cc6n5C[C@@H]5CCO5)cc4F)n3)nc2)cc1` [Example 404, (S)-2-(4-(6-((5-((4-cyanophenyl)ethynyl)pyrimidin-2-yl)methoxy)pyridin-2-yl)-2,5-difluorobenzyl)-1-(oxetan-2-ylmethyl)-1H-benzo[d]imidazole-6-carboxylic acid] displayed an EC50 of 0.689 nM.
